Experimental data from ChEMBL document CHEMBL1201862, “PubChem BioAssay data set” (2004).
The source made the active and inactive calls.

How the values were obtained:
[1] = THP-1 cell cytotoxicity, dose response, cytotoxicity control for non-replicating M. tuberculosis project (AID 489025); type: functional
[2] = HepG2 cell cytotoxicity, dose response, cytotoxicity control for non-replicating M. tuberculosis project (AID 489018); type: functional; settings: Mycobacterium tuberculosis
[3] = Vero E6 cell cytotoxicity, dose response, cytotoxicity control for non-replicating M. tuberculosis project, secondary assay (AID 492998); type: functional, VeroE6; settings: Vero C1008
cells = type: functional
[4] = P. falciparum late gametocyte killing, dose response, luminescence (AID 1117278); type: functional, cell-based;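 also: gametocytes exposed to compound for 24 hours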
[5] = Jurkat T cell cytotoxicity, dose response, cytotoxicity control for P. falciparum gametocyte viability project, luminescence (AID 1117277); type: functional, cell-based;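 also: potency reflects loss of cellular ATP meaning fewer viable cells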
Prothrombin = Prothrombin (Homo sapiens, UniProt P00734); assay: Thrombin 1536 HTS Dose Response Confirmation. [Related pubchem assays: 1046 (Thrombin 1536 HTS; hits were confirmed in this assay)]; type: functional
[6] = target: T1, Sentrin-specific protease 8 (Homo sapiens, UniProt Q96LD8); type: functional
T1 sequence (Q96LD8 whole entry): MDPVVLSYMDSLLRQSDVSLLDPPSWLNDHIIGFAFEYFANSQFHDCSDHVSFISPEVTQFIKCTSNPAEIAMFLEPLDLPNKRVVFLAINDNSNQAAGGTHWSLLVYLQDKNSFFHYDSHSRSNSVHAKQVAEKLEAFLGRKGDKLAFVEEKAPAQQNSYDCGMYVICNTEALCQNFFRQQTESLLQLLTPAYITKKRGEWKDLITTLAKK

Coagulation factor XII = target: T2, Coagulation factor XII (Homo sapiens, UniProt P00748); assay: FXIIa inhibitor potency, concentration-response, biochemical (AID 716); type: functional
T2 sequence (P00748 whole entry): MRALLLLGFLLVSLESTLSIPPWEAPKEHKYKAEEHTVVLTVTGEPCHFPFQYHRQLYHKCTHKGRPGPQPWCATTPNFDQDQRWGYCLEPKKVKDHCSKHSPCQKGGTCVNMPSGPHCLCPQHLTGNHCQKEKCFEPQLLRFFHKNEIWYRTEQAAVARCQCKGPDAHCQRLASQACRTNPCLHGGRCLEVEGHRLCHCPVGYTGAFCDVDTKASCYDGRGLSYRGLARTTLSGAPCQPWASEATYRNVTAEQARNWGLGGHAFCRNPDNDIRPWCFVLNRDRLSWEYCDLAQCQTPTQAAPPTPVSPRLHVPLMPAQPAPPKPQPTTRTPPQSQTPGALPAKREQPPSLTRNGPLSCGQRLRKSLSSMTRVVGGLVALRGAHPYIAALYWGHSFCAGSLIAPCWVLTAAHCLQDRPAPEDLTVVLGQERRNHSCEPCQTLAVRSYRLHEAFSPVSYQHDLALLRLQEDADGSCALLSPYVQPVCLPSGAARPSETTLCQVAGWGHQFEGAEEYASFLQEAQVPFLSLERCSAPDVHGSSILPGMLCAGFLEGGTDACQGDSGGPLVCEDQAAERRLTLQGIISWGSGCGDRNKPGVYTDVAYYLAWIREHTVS

[7] = target: Luciferin 4-monooxygenase (Photinus pyralis, UniProt P08659); assay: Counter Screen for Luciferase-based Assay Positives. [Related pubchem assays: 620, 618, 411 ]
Chain of Luciferin 4-monooxygenase (P08659 whole entry): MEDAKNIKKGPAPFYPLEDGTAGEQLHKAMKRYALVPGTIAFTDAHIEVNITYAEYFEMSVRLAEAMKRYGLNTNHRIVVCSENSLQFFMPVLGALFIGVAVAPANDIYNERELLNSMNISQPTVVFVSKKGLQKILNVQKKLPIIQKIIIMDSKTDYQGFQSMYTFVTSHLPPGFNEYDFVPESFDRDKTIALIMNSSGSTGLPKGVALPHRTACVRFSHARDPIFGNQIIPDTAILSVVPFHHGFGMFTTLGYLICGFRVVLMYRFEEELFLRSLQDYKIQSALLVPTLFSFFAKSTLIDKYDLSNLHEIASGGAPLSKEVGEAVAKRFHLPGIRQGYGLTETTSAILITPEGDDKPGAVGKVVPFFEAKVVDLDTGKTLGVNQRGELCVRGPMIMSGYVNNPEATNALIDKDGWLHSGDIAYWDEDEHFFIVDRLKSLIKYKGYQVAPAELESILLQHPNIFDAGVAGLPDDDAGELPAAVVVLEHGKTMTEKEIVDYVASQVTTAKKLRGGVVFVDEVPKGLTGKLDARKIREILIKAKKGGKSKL

HT-1080 = assay: cytotoxicity in HT1080 fibrosarcoma cells, cell-based, fluorescence readout (AID 620); type: functional; settings: Homo sapiens
[8] = cytotoxicity in HPDE-C7 cells, cell-based, fluorescence, HTS (AID 430); type: functional; settings: Homo sapiens
[9] = cytotoxicity in KRAS-transformed pancreatic duct cells, primary screen, cell-based, fluorescence, HTS (AID 431); type: functional; settings: Homo sapiens;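 also: cell line used: HPDE-C7K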

## Oc1nc(-c2ccccn2)nc2ccccc12
[1]
  CC50: > 40 µM (active)
[2]
  CC50: > 20 µM (active)
[3]
  CC50: 19.6 µM (active)
cells
  IC50: 3.56 µM (active)

## O=C(COC(=O)c1cncc(Br)c1)NC1CCCCCC1
[4]
  IC50: > 109 µM (inactive)
[5]
  IC50: > 83.3 µM (inactive)

## CN(C)c1ccc(NC(=O)c2ccc(Cn3cc([N+](=O)[O-])cn3)cc2)cc1
Prothrombin
  IC50: > 50 µM (not active)
[6]
  IC50: 23.2 µM (active)

## Cc1c(C(=O)N2CCC(C(N)=O)CC2)sc(N)c1C#N
Prothrombin
  IC50: > 50 µM (not active)

## O=C(CCC1COc2ccccc2O1)NCc1ccco1 (configuration not stated)
Coagulation factor XII
  IC50: > 50 µM (inactive)

## COc1ccc(-c2cn3nc4c(nc3n2)CCCC4)cc1
[7]
  EC50: 0.46 µM (active)
HT-1080
  EC50: > 50 µM (not active)

## CC(=O)NCC(=O)OCC(=O)Nc1ccc(C(C)=O)cc1
Coagulation factor XII
  IC50: > 50 µM (inactive)

## O=C(CSc1nnc2c3c4c(sc3ncn12)CCCC4)NCc1ccco1
[8]
  EC50: > 20 µM (not active)
[9]
  EC50: 14.5 µM (active)

## O=C(COc1cc(Cl)c(Cl)cc1Cl)N1CCN(c2ccccn2)CC1
Prothrombin
  IC50: > 50 µM (not active)

## COc1ccc(NC(=O)CS(=O)(=O)c2ccccc2)cc1
[4]
  IC50: > 109 µM (inactive)
[5]
  IC50: > 83.2 µM (inactive)

## CCn1cc(C(=O)N2CCc3ccccc32)c(=O)c2cc(S(=O)(=O)N3CCOCC3)ccc21
[8]
  EC50: > 20 µM (not active)
[9]
  EC50: > 20 µM (not active)

## COc1ccc(-n2c(Cc3cccs3)nnc2SCC(=O)Nc2ccc3c(c2)OCCO3)cc1
Coagulation factor XII
  IC50: > 50 µM (inactive)

## CCOC(=O)C(CC)(CCC(=O)OC)c1csc(Nc2ccccc2O)n1 (configuration not stated)
Prothrombin
  IC50: > 50 µM (not active)
